These results are taken from patent US6743798B1, “Substituted pyrazole derivatives condensed with six-membered heterocyclic rings” (Bayer Aktiengesellschaft, priority 1998, dated 2004).

The test system of one data set is anaesthetized rats. Description: Blood pressure measurements in anaesthetized rats. It counts as in vivo, rat. On the procedure:
Male Wister rats having a bodyweight of 300-350 g are anaesthetized with Thiopental (100 mg/kg i.p.). After tracheotomy, a catheter is inserted into the femoral artery for blood pressure measurement. The substances to be tested are administered orally in Transcutol, Cremophor EL, H2O (10%/20%/70%) in a volume of 1 ml/kg.

In data set [1] the test system is soluble guanylate cyclase. Description: Stimulation of soluble guanylate cyclase in primary endothelial cells. The note with it: for Increase in the cGMP concentration (%): test substances final concentration 1 μM, 10 minutes, primary endothelial cells from pig aortas. The class given is cell-based, pig. On the procedure: Primary endothelial cells were isolated from pig aortas by treatment with collagenase soln. The cells were then cultured in culture medium at 37 °C/5% CO2 until confluence was reached. For the investigations, the cells were passaged, inoculated into 24-well cell culture plates and subcultured until reaching confluence (˜2×10^5 cells/well). For the stimulation of endothelial guanylate cyclase, the culture medium was aspirated and the cells were washed once with Ringer solution. After removing the Ringer solution, the cells were incubated for 10 minutes at 37° C./5% CO2 in stimulation buffer with or without NO donor (sodium nitroprusside, SNP or DEA/NO 1 μM). […] After the incubation time had ended, the buffer solution was aspirated and cold buffer at 4° C. was added to the cells. The cells were then lysed at −20° C. for 16 hours. The supernatants containing the intracellular cGMP were then removed and the cGMP concentration was determined by means of the cGMP-SPA system (Amersham Buchler, Brunswick).

The test system of data set [2] is rabbit aortal rings preconcentrated with phenylephrine. The experiment in a line: Vasorelaxant action in vitro. It counts as cell-based. The note with it: Oryctolagus cuniculus, read-out: IC50 [μM] vasorelaxant action. On the procedure: (§1) To determine the cardiovascular action, the following investigations were carried out: In in vitro investigations on the isolated and on cells of vascular origin, the effect on guanylate cyclase-dependent cGMP formation was tested with and without NO donor. The anti-aggregatory properties were shown on human platelets stimulated with collagen. The vasorelaxant action was determined in rabbit aortal rings preconcentrated with phenylephrine. The hypotensive action was investigated in anaesthetized and awake rats.
Rabbits are anaesthetized by a blow to the neck and exanguinated. The aorta is removed, freed from adhering tissue, divided into 1.5 mm wide rings and individually transferred under a pretension into 5 ml organ baths containing a warm, carbogen-aerated Krebs-Henseleit solution at 37° C. of the following composition (mM): NaCl: 119; KCl: 4.8; CaCl2×2H2O: 1; MgSO4×7H2O; 1.4; KH2PO4: 1.2; NaHCO3: 25; glucose: 10. The contractility is detected using Statham UC2 cells, amplified and digitalized by means of A/D converters (DAS-1802 HC, Keithley Instruments Munich), and recorded in parallel on linear recorders. To produce a contraction, phenylephrin is added to the bath cumulatively in increasing concentration. […]

For data set [3], the system named is human platelets stimulated with collagen. The experiment in a line: Inhibition of platelet aggregation in vitro. The class given is cell-based. The note with it: 10 min, collagen-induced aggregation, 10 min incubation at 37° C. The method, then: as §1
To determine the platelet-aggregation, blood from healthy volunteers of both sexes was used. As an anticoagulant, 9 parts of blood were admixed to one part of 3.8% strength sodium citrate solution. The blood was centrifuged at 900 rpm for 20 min. The pH of the platelet-rich plasma obtained was adjusted to pH 6.5 using ACD solution (sodium citrate/citric acid/glucose). The platelets were subsequently centrifuged off and resuspended in buffer and once more centrifuged off. The platelet pellet was suspended in buffer and mixed with an additional 2 mmol/l of CaCl2.
To measure the aggregation, aliquots of the platelet suspension were incubated with the substance to be tested at 37° C. for 10 min.

Structures are written as SMILES. Where two headings read alike, the source gives them in different places.

Regarding `Nc1nc(-c2nn(Cc3ccccc3F)c3ncccc23)nc(N)c1N1CCOCC1` [Example 16, 3-(4,6-Diamino-5-N-morpholinopyrimidin-2-yl)-1-(2-fluorobenzyl)-1H-pyrazolo[3,4-b]pyridine], the “max. reduction in blood pressure (mm Hg)” value with anaesthetized rats (0.3 mg/kg p.o.) came out at 21 mm Hg; in the data set with anaesthetized rats (1.0 mg/kg p.o.) it was 35 mm Hg. In addition, the “cGMP (pmol/well)” value is given as 5.1 pmol/well in data set [1] (Ex. 16 0.1 μM); 13.2 pmol/well in data set [1] (Ex. 16 0.3 μM); 20.8 pmol/well in data set [1] (Ex. 16 1.0 μM); 34.5 pmol/well in data set [1] (Ex. 16 3.0 μM); 47.7 pmol/well in data set [1] (Ex. 16 10 μM). In addition, the IC50 in data set [2] was 0.2 µM; in data set [3], 0.06 µM.
As for `CS(=O)(=O)c1cnc(-c2nn(Cc3ccccc3F)c3ncccc23)nc1N` [Example 1, 3-(4-Amino-5-methylsulphonylpyrimidin-2-yl)-1-(2-fluorobenzyl)-1H-pyrazolo[3,4-b]pyridine], the “Increase in the cGMP concentration (%)” value in data set [1] is on record as >1000%. Moreover, the IC50 in data set [2] (rabbit aorta rings, phenylephrin contraction reduced by 50%) worked out at 0.23 µM.
`Cc1ccc(-c2nc(-c3nn(Cc4ccccc4F)c4ncccc34)ncc2C#N)cc1` [Example 14, 3-[5-Cyano-4-(4-methylphenyl)pyrimidin-2-yl]-1-(2-fluorobenzyl)-1H-pyrazolo[3,4-b]pyridine]: the “Increase in the cGMP concentration (%)” value in data set [1] is listed as >1000%.
Turning to `Nc1nc(-c2nn(Cc3ccccc3F)c3ncccc23)ncc1CC(F)(F)F` [Example 8], the melting point is 181 °C.
Compound `NC(=O)c1cnc(-c2nn(Cc3ccccc3F)c3ncccc23)nc1N` [Example 6] displayed a melting point of 215 °C. Besides, the “Increase in the cGMP concentration (%)” value in data set [1] is 600%.

By IC50 is commonly meant the concentration that gives 50% inhibition. As a reminder, the melting point is the temperature, or range, at which the solid turns liquid.
